According to PMC9186412, “Rational Framework for the Design of Trp- and Arg-Rich Peptide Antibiotics Against Multidrug-Resistant Bacteria” (Frontiers in Microbiology, 2022):
Values after ≈ are worked out from the molar mass of the structure shown. Like-named read-outs stand apart in the source and are kept apart here. Where no end group is shown, it is not given here.

How the values were obtained:
A. baumannii = assay: microbe, parasite or virus in culture; type: cell-based, Acinetobacter baumannii; conditions: 18 h
Method: (§1) Bacterial clinical isolates, used for initial screening and in previous studies ([Deslouches et al., 2013]; [Lin et al., 2018]), were anonymously provided by the clinical microbiology laboratory of the University of Pittsburgh medical Center. The panel used for secondary screening was from [CDC (2013)] (Supplementary Table 3), with resistance profiles data. Bacteria are stored in lock-secured –80°C freezer and typically retrieved by obtaining single colonies on agar plates prior for subsequent liquid broth cultures. Suspensions of test bacteria were prepared from log phase of growth by diluting overnight cultures at 1:100 with fresh cation-adjusted MHB (MHB2, Millipore Sigma, United States) and incubating for additional 3–4 h. Bacteria were spun at 3,000 × g for 10 min and the pellet resuspended in test condition media (Millipore Sigma, United States) to determine bacterial turbidity using a Den-1B densitometer (Grant Instruments, United States) at 0.5 McFarland (unit of bacterial density) corresponding to […].
(§2) To examine antibacterial activity, we used minor modifications of a standard growth inhibition assay endorsed by the Clinical and Laboratory Standards Institute (CLSI), as previously described ([Deslouches et al., 2013]). Bacteria were incubated with each of the indicated peptides in MHB2. The bacterial cells were kept in an incubator for 18 h at 37°C, which is linked to a robotic system that feeds a plate reader every hour with one of 8 × 96-well plates. This set-up allows the collection of growth kinetic data at A 570 (absorbance at 570 nm) to examine growth inhibition in real time (BioTek Instruments, United States). […] The assays are typically repeated a second time. If the MIC is different, a third experimental trial is performed to confirm the MIC. To assess bactericidal properties of the peptide, the assay was modified by using 15% fetal bovine serum (FBS, for a more physiologically relevant test condition) mixed with 25% MHB2 and 60% PBS. Bacterial cells (colony forming unit/mL or CFU/mL) were enumerated after incubating treated bacteria for 3 h and plating serially diluted samples on broth agar medium at 37°C overnight. Minimum bactericidal concentration (MBC) was determined as the peptide concentration at which complete bacterial killing was observed. […] Data were analyzed using GraphPad Prism software.

E. coli = assay: microbe, parasite or virus in culture; type: cell-based, Escherichia coli
Method: as §1, §2

Enterobacter spp = assay: microbe, parasite or virus in culture; type: cell-based, Enterobacter spp (aerogenes, cloacae); conditions: Enterobacter, 18 h, UPMC, MHB2, 18 h, 37°C
Method: as §1, §2

K. pneumoniae = assay: microbe, parasite or virus in culture; type: cell-based, Klebsiella pneumoniae; conditions: Klebsiella pneumoniae, 18 h, MHB2, 18 h, 37°C
Method: as §1, §2

CDC AR isolates [1] = tested on: CDC AR isolates; set-up: key: S (green), susceptible; I (blue), intermediate; R (red), resistant; conditions: data provided by the CDC, ref CDC, cited from earlier work
Source text: Supplement Table_3.XLSX, sheet "CDC AR isolates profiles" | column: G(-) strains

CDC AR isolates [2] = tested on: CDC AR isolates; set-up: key: S (green), susceptible; I (blue), intermediate; R (red), resistant; conditions: data provided by the CDC, ref CDC, cited from earlier work; remark: listed apart in the source
[3] = Enterobacter cloacae E62, CDC AR isolate
[4] = Enterobacter cloacae E544, CDC AR isolate
[5] = Enterobacter cloacae E545, CDC AR isolate
[6] = Enterobacter cloacae E546, CDC AR isolate
[7] = Escherichia coli EC541, CDC AR isolate
[8] = Escherichia coli EC543, CDC AR isolate
[9] = Escherichia coli EC544, CDC AR isolate
[10] = Escherichia coli EC549, CDC AR isolate
[11] = Klebsiella pneumoniae KP542, CDC AR isolate
[12] = Klebsiella pneumoniae KP548, CDC AR isolate
[13] = Klebsiella pneumoniae KP550, CDC AR isolate
[14] = Klebsiella pneumoniae KP552, CDC AR isolate
[15] = Enterococcus faecium EF500, CDC AR isolate
[16] = Enterococcus faecium EF671, CDC AR isolate
[17] = Enterococcus faecium EF672, CDC AR isolate
[18] = Staphylococcus aureus SA462, CDC AR isolate
[19] = Staphylococcus aureus SA463, CDC AR isolate
[20] = Staphylococcus aureus SA561, CDC AR isolate
[21] = Enterococcus faecium EF673, CDC AR isolate
[22] = Staphylococcus aureus SA461, CDC AR isolate

RRWVRWVRRWVRWVRR [E80]
MIC (A. baumannii): 16 µM

RVWRRVRRVWRRVRRVWRRV [E69]
MIC (A. baumannii): 8 µM

RRVWRRVRRVWRRVRRVVRRVW [E71]
MIC (A. baumannii): 8 µM

C[C@@H](O)[C@H]1C(=O)N2C(C(=O)O)=C(S[C@@H]3CN[C@H](C(=O)N(C)C)C3)[C@H](C)[C@H]12 [Meropenem, reference compound]
MIC (A. baumannii; Acinetobacter baumannii, strain AB-A2, UPMC clinical strain, MHB2, 18 h, 37°C, A570, confirmed by 2nd or 3rd trial): 4 µM (≈ 1.53 µg/mL)
MIC (A. baumannii; Acinetobacter baumannii, strain AB-A3, UPMC, MHB2, 18 h, 37°C): > 16 µM
MIC (A. baumannii; Acinetobacter baumannii, strain AB-F8, UPMC, MHB2, 18 h, 37°C): 8 µM (≈ 3.07 µg/mL)
MIC (A. baumannii; Acinetobacter baumannii, strain AB-F9, UPMC, MHB2, 18 h, 37°C): 8 µM (≈ 3.07 µg/mL)
MIC (E. coli; Escherichia coli, 18 h, strain Eco25922, MHB2, 18 h, 37°C): 0.5 µM (≈ 0.192 µg/mL)
MIC (E. coli; Escherichia coli, 18 h, strain YDC107, UPMC, MHB2, 18 h, 37°C): 1 µM (≈ 0.383 µg/mL)
MIC (E. coli; Escherichia coli, 18 h, strain YDC337, UPMC, MHB2, 18 h, 37°C): 8 µM (≈ 3.07 µg/mL)
MIC (E. coli; Escherichia coli, 18 h, strain YDC748, UPMC, MHB2, 18 h, 37°C): 8 µM (≈ 3.07 µg/mL)
MIC (Enterobacter spp; strain EA518 (aerogenes)): > 16 µM
MIC (Enterobacter spp; strain EA596 (aerogenes)): 16 µM (≈ 6.14 µg/mL)
MIC (Enterobacter spp; strain EC470 (cloacae)): > 16 µM
MIC (Enterobacter spp; strain EC560 (cloacae)): 16 µM (≈ 6.14 µg/mL)
MIC (K. pneumoniae; strain KP43816): 1 µM (≈ 0.383 µg/mL)
MIC (K. pneumoniae; strain KPA5 (colistin-resistant), UPMC): 2 µM (≈ 0.767 µg/mL)
MIC (K. pneumoniae; strain KPB3, UPMC): 2 µM (≈ 0.767 µg/mL)
MIC (K. pneumoniae; strain KPC3, UPMC): 1 µM (≈ 0.383 µg/mL)
Antibiotic susceptibility profile (CDC AR isolates [1]; Acinetobacter baumannii AB273, CDC AR isolate): R
Antibiotic susceptibility profile (CDC AR isolates [1]; Acinetobacter baumannii AB274, CDC AR isolate): R
Antibiotic susceptibility profile (CDC AR isolates [1]; Acinetobacter baumannii AB275, CDC AR isolate): R
Antibiotic susceptibility profile (CDC AR isolates [1]; Acinetobacter baumannii AB276, CDC AR isolate): R
Antibiotic susceptibility profile (CDC AR isolates [1]; [3]): S
Antibiotic susceptibility profile (CDC AR isolates [1]; [4]): R
Antibiotic susceptibility profile (CDC AR isolates [1]; [5]): S
Antibiotic susceptibility profile (CDC AR isolates [1]; [6]): I
Antibiotic susceptibility profile (CDC AR isolates [1]; [7]): S
Antibiotic susceptibility profile (CDC AR isolates [1]; [8]): I
Antibiotic susceptibility profile (CDC AR isolates [1]; [9]): R
Antibiotic susceptibility profile (CDC AR isolates [1]; [10]): R
Antibiotic susceptibility profile (CDC AR isolates [1]; [11]): I
Antibiotic susceptibility profile (CDC AR isolates [1]; [12]): R
Antibiotic susceptibility profile (CDC AR isolates [1]; [13]): R
Antibiotic susceptibility profile (CDC AR isolates [1]; [14]): R
Antibiotic susceptibility profile (CDC AR isolates [1]; Pseudomonas aeruginosa PA229, CDC AR isolate): R
Antibiotic susceptibility profile (CDC AR isolates [1]; Pseudomonas aeruginosa PA230, CDC AR isolate): R
Antibiotic susceptibility profile (CDC AR isolates [1]; Pseudomonas aeruginosa PA231, CDC AR isolate): R
Antibiotic susceptibility profile (CDC AR isolates [1]; Pseudomonas aeruginosa PA232, CDC AR isolate): I
Antibiotic susceptibility profile (CDC AR isolates [1]; Pseudomonas aeruginosa PA239, CDC AR isolate): R

Penicillin
Antibiotic susceptibility profile (CDC AR isolates [1]; [15]): R
Antibiotic susceptibility profile (CDC AR isolates [1]; [16]): S
Antibiotic susceptibility profile (CDC AR isolates [1]; [17]): S
Antibiotic susceptibility profile (CDC AR isolates [1]; [18]): R
Antibiotic susceptibility profile (CDC AR isolates [1]; [19]): R
Antibiotic susceptibility profile (CDC AR isolates [1]; [20]): R
Antibiotic susceptibility profile (CDC AR isolates [2]; [21]): S
Antibiotic susceptibility profile (CDC AR isolates [2]; [22]): S

CO[C@@]1(NC(=O)Cc2cccs2)C(=O)N2C(C(=O)O)=C(COC(N)=O)CS[C@@H]21 [Cefoxitin]
Antibiotic susceptibility profile (CDC AR isolates [1]; [3]): R
Antibiotic susceptibility profile (CDC AR isolates [1]; [4]): R
Antibiotic susceptibility profile (CDC AR isolates [1]; [5]): R
Antibiotic susceptibility profile (CDC AR isolates [1]; [6]): R
Antibiotic susceptibility profile (CDC AR isolates [1]; [7]): S
Antibiotic susceptibility profile (CDC AR isolates [1]; [8]): R
Antibiotic susceptibility profile (CDC AR isolates [1]; [9]): R
Antibiotic susceptibility profile (CDC AR isolates [1]; [10]): R
Antibiotic susceptibility profile (CDC AR isolates [1]; [11]): R
Antibiotic susceptibility profile (CDC AR isolates [1]; [12]): R
Antibiotic susceptibility profile (CDC AR isolates [1]; [13]): R
Antibiotic susceptibility profile (CDC AR isolates [1]; [14]): R
Antibiotic susceptibility profile (CDC AR isolates [1]; [18]): R
Antibiotic susceptibility profile (CDC AR isolates [1]; [19]): R
Antibiotic susceptibility profile (CDC AR isolates [1]; [20]): R
Antibiotic susceptibility profile (CDC AR isolates [2]; [22]): R

CC(=O)NC[C@H]1CN(c2ccc(N3CCOCC3)c(F)c2)C(=O)O1 [Linezolid]
Antibiotic susceptibility profile (CDC AR isolates [1]; [15]): S
Antibiotic susceptibility profile (CDC AR isolates [1]; [16]): S
Antibiotic susceptibility profile (CDC AR isolates [1]; [17]): S
Antibiotic susceptibility profile (CDC AR isolates [1]; [18]): S
Antibiotic susceptibility profile (CDC AR isolates [1]; [19]): S
Antibiotic susceptibility profile (CDC AR isolates [1]; [20]): S
Antibiotic susceptibility profile (CDC AR isolates [2]; [21]): S
Antibiotic susceptibility profile (CDC AR isolates [2]; [22]): S

C[C@H]1c2cccc(O)c2C(=O)C2=C(O)[C@]3(O)C(=O)C(C(N)=O)=C(O)[C@@H](N(C)C)[C@@H]3[C@@H](O)[C@@H]21 [Doxycycline]
Antibiotic susceptibility profile (CDC AR isolates [1]; [15]): I
Antibiotic susceptibility profile (CDC AR isolates [1]; [16]): S
Antibiotic susceptibility profile (CDC AR isolates [1]; [17]): I
Antibiotic susceptibility profile (CDC AR isolates [1]; [18]): S
Antibiotic susceptibility profile (CDC AR isolates [1]; [19]): S
Antibiotic susceptibility profile (CDC AR isolates [1]; [20]): I
Antibiotic susceptibility profile (CDC AR isolates [2]; [21]): S
Antibiotic susceptibility profile (CDC AR isolates [2]; [22]): S

CCCCCCCCCC(=O)N[C@@H](Cc1c[nH]c2ccccc12)C(=O)N[C@H](CC(N)=O)C(=O)N[C@@H](CC(=O)O)C(=O)N[C@@H]1C(=O)NCC(=O)N[C@@H](CCCN)C(=O)N[C@@H](CC(=O)O)C(=O)N[C@H](C)C(=O)N[C@@H](CC(=O)O)C(=O)NCC(=O)N[C@H](CO)C(=O)N[C@@H]([C@H](C)CC(=O)O)C(=O)N[C@@H](CC(=O)c2ccccc2N)C(=O)O[C@@H]1C [Daptomycin]
Antibiotic susceptibility profile (CDC AR isolates [1]; [15]): S
Antibiotic susceptibility profile (CDC AR isolates [1]; [16]): S
Antibiotic susceptibility profile (CDC AR isolates [1]; [17]): S
Antibiotic susceptibility profile (CDC AR isolates [1]; [19]): S
Antibiotic susceptibility profile (CDC AR isolates [2]; [21]): S
Antibiotic susceptibility profile (CDC AR isolates [2]; [22]): S

RRVWRRVRRVWRRVRRWVRRVV [E72]
MIC (E. coli): 0.5 µM
